Read-outs that look alike come from different tables or passages of the source.
Key:
MCF-7 (breast carcinoma) = assay: SRB cytotoxicity assay, 72 h; type: cell-based, human; details: MCF-7, 72 h, cut-off 30 µM
How it was run: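 EC50 values reflect percent surviving cells versus untreated controls, read at 570 nm after SRB staining of TCA-fixed monolayers. Dosing spanned 0–30 µM over 72 h.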

SR (Leukemia) = assay: NCI-60 screen (SRB, 48 h); type: cell-based; details: for GI50 / CC50: Homo sapiens; for CC50: read-out: LC50 (the source's name)
[1] = test system: panel of approximately 60 cancer cell lines; assay: NCI-60 screen (SRB, 48 h), full panel; details: for Positive Cytostatic Effect (cell lines with percent growth 0 to 50 / total) / number of cancer cell lines the compound was active against / Positive Cytotoxic Effect (cell lines with percent growth < 0 / total): 1 dose 10 µM; for activity at 10 µM / IC (TGI) / GI50 / CC50: Homo sapiens; for activity at 10 µM / IC (TGI): 48 h; for IC (TGI): read-out: TGI MG_MID60, average over all cell lines; for CC50: read-out: LC50 MG_MID60, average over all cell lines
HL-60(TB) (Leukemia) = assay: NCI-60 screen (SRB, 48 h); type: cell-based; details: Homo sapiens; for CC50: read-out: LC50 (the source's name)
OVCAR-3 (Ovarian cancer) = details: OVCAR-3, 1 dose 10 µM
[2] = Homo sapiens, MCF7, read-out: EC50
[3] = read-out: GI50 against all human tumor cell lines
[4] = read-out: GI50 against the most sensitive cell lines

Question: What does the source list for C=C(C)C1CCC2(CO)CCC3(C)C(CCC4C5(C)CCCNC(C)(C)C5CCC43C)C12 (centres unmarked) [Compound 1, Azepanobetulin]?
Answer: EC50 (MCF-7 (breast carcinoma); [2]): 1.91 ± 0.1 µM; TGI (SR (Leukemia)): 3.79 µM; GI50 (SR (Leukemia)): 1.59 µM; Positive Cytostatic Effect (cell lines with percent growth 0 to 50 / total) [1]: 27/59; number of cancer cell lines the compound was active against [1]: 28 cell lines; activity at 10 µM ([1]; read-out: Mean Growth, %): 20.8%; activity at 10 µM ([1]; read-out: Range of Growth, %): -82.5 to 84.4%; IC (TGI) [1]: 3.34 µM; GI50 ([1]; read-out: GI50 MG_MID60): 1.7 µM; GI50 [1, 3]: < 3 µM

Question: How did the EC50 (MCF-7 (breast carcinoma)) turn out when CC1(C)CC[C@]2(CO)CC[C@]3(C)C(=CC[C@@H]4[C@@]5(C)CCCNC(C)(C)[C@@H]5CC[C@]43C)[C@@H]2C1 [Compound 3, azepanoerythrodiol] was run?
Answer: n.s.

Question: And the GI50 (HL-60(TB) (Leukemia))?
Answer: 1.95 µM

Question: And the CC50 (HL-60(TB) (Leukemia))?
Answer: > 100 µM

Question: What about the TGI (SR (Leukemia)) of the same compound?
Answer: > 100 µM

Question: And the GI50 (SR (Leukemia))?
Answer: 2.22 µM

Question: And the CC50 (SR (Leukemia))?
Answer: > 100 µM

Question: And the “Positive Cytostatic Effect (cell lines with percent growth 0 to 50 / total)” value [1]?
Answer: 20/57

Question: And the “Positive Cytotoxic Effect (cell lines with percent growth < 0 / total)” value [1]?
Answer: 19/57

Question: And the “number of cancer cell lines the compound was active against” value (“number” below) [1]?
Answer: 30 cell lines

Question: What about the activity at 10 µM ([1]; read-out: Mean Growth, %) of the same compound?
Answer: 18.9%

Question: What about the activity at 10 µM ([1]; read-out: Range of Growth, %) of the same compound?
Answer: -88.4 to 89.3%

Question: And the IC (TGI) [1]?
Answer: 15.5 µM

Question: What about the GI50 ([1]; read-out: GI50 MG_MID60) of the same compound?
Answer: 3.83 µM

Question: And the GI50 [1, 3]?
Answer: < 10 µM

Question: What about the GI50 [1, 4] of the same compound?
Answer: 0.2 to 0.94 µM

Question: What about the CC50 [1] of the same compound?
Answer: 32 µM

Question: And the “selectivity indexes at TGI level (subpanels)” value ([1]; MG_MID60/subpanel MG_MID)?
Answer: 3.59–4.69

Question: With C[C@H]1[C@H](C)CC[C@]2(CO)CC[C@]3(C)C(=CC[C@@H]4[C@@]5(C)CCCNC(C)(C)[C@@H]5CC[C@]43C)[C@H]12 [Compound 4, azepanouvaol] as the compound, how does the EC50 (MCF-7 (breast carcinoma); [2]) read?
Answer: 2.3 ± 0.2 µM

Question: And the TGI (SR (Leukemia))?
Answer: 3.13 µM

Question: What about the GI50 (SR (Leukemia)) of the same compound?
Answer: 1.18 µM

Question: What about the “Positive Cytostatic Effect (cell lines with percent growth 0 to 50 / total)” value [1] of the same compound?
Answer: 18/59

Question: What about the “Positive Cytotoxic Effect (cell lines with percent growth < 0 / total)” value [1] of the same compound?
Answer: 40/59

Question: What about the “number” value [1] of the same compound?
Answer: 57 cell lines

Question: And the activity at 10 µM ([1]; read-out: Mean Growth, %)?
Answer: -31.9%

Question: What about the activity at 10 µM ([1]; read-out: Range of Growth, %) of the same compound?
Answer: -99 to 23%

Question: What about the IC (TGI) [1] of the same compound?
Answer: 3.31 µM

Question: And the GI50 ([1]; read-out: GI50 MG_MID60)?
Answer: 1.65 µM

Question: And the GI50 [1, 3]?
Answer: < 3 µM

Question: What about the GI50 [1, 4] of the same compound?
Answer: 0.2 to 0.94 µM

Question: And the CC50 [1]?
Answer: 7.64 µM

Question: What does the source list for CC1(C)NCCC[C@]2(C)[C@H]3C=CC4=C5C[C@@](C)(CO)CC[C@]5(C)CC[C@@]4(C)[C@]3(C)CC[C@@H]12 [Compound 6, azepano-glycyrrhetol-diene]?
Answer: EC50 (MCF-7 (breast carcinoma); [2]): 7.1 ± 0.5 µM; GI50 (HL-60(TB) (Leukemia)): 2.63 µM; IC (TGI) (HL-60(TB) (Leukemia); 48 h): 7.02 µM; CC50 (HL-60(TB) (Leukemia)): 32.6 µM; TGI (SR (Leukemia)): 7.17 µM; GI50 (SR (Leukemia)): 2.42 µM; CC50 (SR (Leukemia)): > 100 µM; Positive Cytotoxic Effect (cell lines with percent growth < 0 / total) [1]: 59/59; number of cancer cell lines the compound was active against [1]: pronounced antiproliferative effect against the whole NCI-60 cancer cell line panel; activity at 10 µM ([1]; read-out: Mean Growth, %): -77.2%; activity at 10 µM ([1]; read-out: Range of Growth, %): -99.7 to -5.08%; IC (TGI) [1]: 13.2 µM; GI50 ([1]; read-out: GI50 MG_MID60): 4.21 µM; GI50 [1, 3]: < 15 µM; CC50 [1]: 41.9 µM

Question: What does the source list for CC1(C)CC[C@]23CC[C@]4(C)[C@H](CC[C@@H]5[C@@]6(C)CCCNC(C)(C)[C@@H]6CC[C@]54C)[C@H]2[C@H]1OC3 [Compound 7, Azepanoallobetulin]?
Answer: EC50 (MCF-7 (breast carcinoma)): n.s.; TGI (SR (Leukemia)): 4.12 µM; GI50 (SR (Leukemia)): 1.49 µM; CC50 (SR (Leukemia)): > 100 µM; Positive Cytostatic Effect (cell lines with percent growth 0 to 50 / total) [1]: 16/59; Positive Cytotoxic Effect (cell lines with percent growth < 0 / total) [1]: 41/58; number of cancer cell lines the compound was active against [1]: 52 cell lines; activity at 10 µM ([1]; read-out: Mean Growth, %): -27.3%; activity at 10 µM ([1]; read-out: Range of Growth, %): -99.4 to 76.4%; IC (TGI) [1]: 3.64 µM; GI50 ([1]; read-out: GI50 MG_MID60): 1.68 µM; GI50 [1, 3]: < 3 µM; GI50 [1, 4]: 0.2 to 0.94 µM; CC50 [1]: 17.2 µM

Question: Which EC50 (MCF-7 (breast carcinoma); [2]) does the source give for C=C(C)[C@@H]1CCC=C2CC[C@]3(C)[C@H](CC[C@@H]4[C@@]5(C)CCCNC(C)(C)[C@@H]5CC[C@]43C)[C@H]21 [Compound 8] here?
Answer: 1.41 ± 0.1 µM

Question: And the “Growth % of the Most Sensitive Cell Lines” value (OVCAR-3 (Ovarian cancer))?
Answer: −93.30%

Question: And the “Positive Cytostatic Effect (cell lines with percent growth 0 to 50 / total)” value [1]?
Answer: 7/60

Question: What about the “Positive Cytotoxic Effect (cell lines with percent growth < 0 / total)” value [1] of the same compound?
Answer: 49/60

Question: What about the “number” value [1] of the same compound?
Answer: 55 cell lines

Question: And the activity at 10 µM ([1]; read-out: Mean Growth, %)?
Answer: -46.7%

Question: What about the activity at 10 µM ([1]; read-out: Range of Growth, %) of the same compound?
Answer: -99.5 to 75.9%

Question: And the IC (TGI) [1]?
Answer: 3.53 µM

Question: What about the GI50 ([1]; read-out: GI50 MG_MID60) of the same compound?
Answer: 1.73 µM

Question: And the GI50 [1, 3]?
Answer: < 3 µM

Question: What about the GI50 [1, 4] of the same compound?
Answer: 0.2 to 0.94 µM

— publication PMC7914897, “Cytotoxic Potential of a-Azepano- and 3-Amino-3,4-SeCo-Triterpenoids” (International Journal of Molecular Sciences, 2021)
